Type in all cases: binding, synthetic construct
For one assay, the target named is T1, SP1.
T1 construct: de novo designed C2-symmetric homodimer, two ZnPPaM per dimer
The assay can be described thus: X-ray crystal structure at […] Å; absorption titration (Kd1 […], Kd2 […]); fluorescence titration ([…]).

The target in the next assay is T2, SP3.
T2 construct: de novo designed C2-symmetric homodimer, two ZnPPaM per dimer
The assay can be described thus: CD titration (Kd1 […], Kd2 […]); absorption titration (Kd1 […], Kd2 […]); fluorescence titration ([…]).

For the next assay, the target named is T3, SP2.
T3 construct: de novo designed C2-symmetric homodimer, two ZnPPaM per dimer
The assay can be described thus: X-ray crystal structure at […] Å; CD titration (Kd1 […], Kd2 […]); absorption titration (Kd1 […], Kd2 […]); fluorescence titration ([…]).

Each structure is given as a SMILES string.

Take `C=Cc1c(C)c2[n]3c1=CC1=NC(=Cc4c(C)c5c([n]4[Zn]3)C(=C3N=C(C=2)[C@@H](C)[C@@H]3CCC(=O)OC)[C@@H](C(=O)OC)C5=O)C(CC)=C1C` [ZnPPaM]: the Kd stood at 290 nM at SP1, 800 nM on SP3 and 300 nM at SP2.

As a reminder, the Kd is the constant that tells how readily two partners part at equilibrium. A lower Kd goes with a tighter complex.

The values are drawn from publication PMC11213709, “De novo design of proteins housing excitonically coupled chlorophyll special pairs” (Nature Chemical Biology, 2024).
